Here are results for 1 compound from US20030165545A1, “Ophthalmic compositions including oil-in-water emulsions, and methods for making and using same” (Allergan, Inc., priority 2002, published 2003).

The subject of the test is Intra Ocular Pressure. As to conditions: about 0.131% in a composition of Example 1. Here is the method:
Approximately 0.05 mL of the composition is administered directly to the eye at time 0.

Read-outs that look alike come from different tables or passages of the source.

With `Brc1c(NC2=NCCN2)ccc2nccnc12` [5-bromo-6-(2-imidozolin-2-ylamino) quinoxaline], the “percent change of Intra Ocular Pressure (mm Hg)” value (from here on “percent change”) (1 hr after about 0.05 mL to the eye) is listed as −10.4%, the “percent change” value (2 hr after about 0.05 mL to the eye) is given as −16.0%, the “percent change” value (4 hr after about 0.05 mL to the eye) is −09.5% and the “percent change” value (6 hr after about 0.05 mL to the eye) is listed as −09.4%.
